Literature values, collected in PubChem BioAssay AID1259409 (Chemical Carcinogenesis Research Information System (CCRIS), 2018).

System: rodent chemically induced tumor inhibition, incidence and multiplicity
Assay: CCRIS tumor inhibitor studies
Conditions: Dose [Inhibitor]: 0, Route [Inhibitor]: ORAL, Species: RAT, Promoter: NONE USED

## C[C@]12CC[C@H](O)CC1=CC[C@@H]1[C@@H]2CC[C@]2(C)C(=O)CC[C@@H]12
Carcinogen: DIETHYLNITROSAMINE, 55-18-5, N-METHYL-N-NITROSOUREA, 684-93-5, N-BUTYL-N-(4-HYDROXYBUTYL)NITROSAMINE, 3817-11-6, 1,2-DIM, Carcinogen: DIETHYLNITROSAMINE, 55-18-5, N-METHYL-N-NITROSOUREA, 684-93-5, N-BUTYL-N-(4-HYDROXYBUTYL)NITROSAMINE, 3817-11-6, 1,2-DIM, 0.3% IND DIET FOR 23 WK BEGINNING 1 WK POST CARCINOGEN TREATMENT (STUDY DURATION: 28 WK), Strain/Sex: F344/MALE, Target Tissue: Type of Lesion: URINARY BLADDER: PAPILLOMA, Dose [Carcinogen]: 100 MG/KG BW DEN ONCE, 20 MG/KG BW MNU ONCE ON DAYS 6,9, AND 12, 0.05% BBN IN DRINKING WATER FOR FIRST TWO WK, 40 MG/KG, Dose [Carcinogen]: 100 MG/KG BW DEN ONCE, 20 MG/KG BW MNU ONCE ON DAYS 6,9, AND 12, 0.05% BBN IN DRINKING WATER FOR FIRST TWO WK, 40 MG/KG
  tumour outcome (control, treated, inhibition, significance): 2/20 (10%), 1/20 (5%), 50%, not significant
Carcinogen: DIETHYLNITROSAMINE, 55-18-5, N-METHYL-N-NITROSOUREA, 684-93-5, N-BUTYLY-N-(4-HYDROXYBUTYL)NITROSAMINE, 3817-11-6, 1,2-DI, Carcinogen: DIETHYLNITROSAMINE, 55-18-5, N-METHYL-N-NITROSOUREA, 684-93-5, N-BUTYLY-N-(4-HYDROXYBUTYL)NITROSAMINE, 3817-11-6, 1,2-DI, 0.3% IN DIET FOR 23 WK BEGINNING 1 WK POST CARCINOGEN TREATMENT (STUDY DURATION: 28 WK), Strain/Sex: F344/MALE, Target Tissue: Type of Lesion: LIVER: CARCINOMA, Dose [Carcinogen]: 100 MG/KG BW DEN ONCE, 20 MG/KG BW MNU ONCE ON DAYS 6,9, AND 12, 0.05% BBN IN DRINKING WATER FOR FIRST TWO WK, 40 MG/KG, Dose [Carcinogen]: 100 MG/KG BW DEN ONCE, 20 MG/KG BW MNU ONCE ON DAYS 6,9, AND 12, 0.05% BBN IN DRINKING WATER FOR FIRST TWO WK, 40 MG/KG
  outcome: 0/20 (0%), 2/20 (10%), 100%, not significant
Carcinogen: DIETHYLNITROSAMINE, 55-18-5, N-METHYL-N-NITRSOUREA, 684-93-5, N-BUTYL-N-(4-HYDROXYBUTYL)NITROSAMINE, 3817-11-6, 1,2-DIME, Carcinogen: DIETHYLNITROSAMINE, 55-18-5, N-METHYL-N-NITRSOUREA, 684-93-5, N-BUTYL-N-(4-HYDROXYBUTYL)NITROSAMINE, 3817-11-6, 1,2-DIME, 0.3% IN DIET FOR 23 WK BEGINNING 1 WK POST CARCINOGEN TREATMENT (STUDY DURATION :28 WK), Strain/Sex: F344/MALE, Target Tissue: Type of Lesion: LARGE INTESTINE: ADENOCARCINOMA, Dose [Carcinogen]: 100 MG/KG BW DEN ONCE, 20 MG/KG BW MNU ONCE ON DAYS 6,9, AND 12, 0.05% BBN IN DRINKING WATER FOR FIRST TWO WK, 40 MG/KG, Dose [Carcinogen]: 100 MG/KG BW DEN ONCE, 20 MG/KG BW MNU ONCE ON DAYS 6,9, AND 12, 0.05% BBN IN DRINKING WATER FOR FIRST TWO WK, 40 MG/KG
  tumour outcome (control, treated, inhibition, significance): 2/20 (10%), 0/20 (0%), 100%, not significant
Carcinogen: DIMETHYLNITROSAMINE, 62-75-9, 0.6% IN DIET BEGINNING 2 WK POST CARCINOGEN DOSE AND CONTINUING FOR 26 WK (STUDY DURATION: 120 WK), Strain/Sex: WISTAR/MALE, Target Tissue: Type of Lesion: KIDNEY: ADENOCARCINOMA, Dose [Carcinogen]: 30 MG/KG ONCE
  tumour outcome (control, treated, inhibition, significance): 12/30 (40%), 24/31 (77%), -93%, p<0.01
Carcinogen: DIMETHYLNITROSAMINE, 62-75-9, 0.6% IN DIET BEGINNING 2 WK POST CARCINOGEN DOSE AND CONTINUING FOR 26 WK (STUDY DURATION: 120 WK), Strain/Sex: WISTAR/MALE, Target Tissue: Type of Lesion: KIDNEY: ADENOMA, Dose [Carcinogen]: 30 MG/KG ONCE
  tumour outcome (control, treated, inhibition, significance): 12/30 (40%), 17/31 (55%), -38%, not calculated
Carcinogen: DIMETHYLNITROSAMINE, 62-75-9, 0.6% IN DIET BEGINNING 2 WK POST CARCINOGEN DOSE AND CONTINUING FOR 26 WK (STUDY DURATION: 120 WK), Strain/Sex: WISTAR/MALE, Target Tissue: Type of Lesion: KIDNEY: EPITHELIAL TUMOR, Dose [Carcinogen]: 30 MG/KG ONCE
  tumour outcome (control, treated, inhibition, significance): 19/30 (63%), 26/31 (84%), -33%, not calculated
Carcinogen: DIMETHYLNITROSAMINE, 62-75-9, 0.6% IN DIET BEGINNING 2 WK POST CARCINOGEN DOSE AND CONTINUING FOR 26 WK (STUDY DURATION: 120 WK), Strain/Sex: WISTAR/MALE, Target Tissue: Type of Lesion: KIDNEY: MESENCHYMAL TUMOR, Dose [Carcinogen]: 30 MG/KG ONCE
  tumour outcome (control, treated, inhibition, significance): 14/30 (47%), 14/31 (45%), 4%, not significant
Carcinogen: DIMETHYLNITROSAMINE, 62-75-9, 0.6% IN DIET BEGINNING 2 WK POST CARCINOGEN DOSE AND CONTINUING FOR 26 WK (STUDY DURATION: 120 WK), Strain/Sex: WISTAR/MALE, Target Tissue: Type of Lesion: KIDNEY: TUMOR, Dose [Carcinogen]: 30 MG/KG ONCE
  tumour outcome (control, treated, inhibition, significance): 26/30 (87%), 30/31 (97%), -11%, not significant
